From patent US6821991B2, “2-substituted thiazolidinones as β-3 adrenergic receptor agonists” (Wyeth, priority 2000, dated 2004)

Columns and labels:
β3-adrenergic receptor = target: T1, β3-adrenergic receptor (Homo sapiens, UniProt P13945); assay: cAMP accumulation (SPA) in CHO cells transfected with human β3 adrenergic receptor; type: cell-based; details: for EC50: CHO cells expressing human β3-AR, cAMP, 30 min, 37° C., 10^-9 M to 10^-5 M; for IA(β3): maximal response relative to maximal response of isoproterenol at 10^-5 M
T1 construct: Full length β3 AR clones (402 amino acids) containing the last 6 amino acids of hβ3-AR are prepared; expressed in transfected cells; host or cells: CHO (Chinese hamster ovary) cells
Description: The ability of compounds of this invention to treat or inhibit disorders related to insulin resistance or hyperglycemia was established with representative compounds of this invention in the following standard pharmacological test procedures, which measured the binding selectivity to the β1, β2, and β3 adrenergic receptors. Binding to the receptors was measured in Chinese Hamster ovary (CHO) cells that were transfected with adrenergic receptors.
Cloning of Human β3-AR Genomic DNA: CDNA was constructed by ligating four polymerase chain reaction (PCR) products using the following primers: an ATG-Narl fragment, sense primer 5′-[…]3′, and anti-sense primer 5′[…]3′; a Narl-Accl fragment, 5′[…]3′ as sense and 5′[…]3′ as anti-sense primer; an Accli-Styl fragment, sense primer 5′[…]3′ and anti-sense primer 5′[…]3′ and a Styl-TAG fragment, with sense primer 5′[…]3′ and anti-sense primer 5′[…]3′. The corresponding primer sequences are described in Mantzoros, C. […] The four fragments are ligated into a pUC 18 plasmid (Gibco-BRL) and sequenced.
Binding Procedure: Clones expressing receptor levels of 70 to 110 fmoles/mg protein were used in the test procedures. CHO cells were grown in 24-well tissue culture plates in Dulbecco's Modified Eagle Media with 10% fetal bovine serum, MEM non-essential amino acids, Penicillin-Streptompycin and Geneticin. On the day of test procedure, growth medium was replaced with preincubation media (Dulbecco's Modified Eagle Media) and incubated for 30 minutes at 37° C. […] Test compounds were tested over a concentration range of 10^−9 M to 10^−5 M for β3 cells and 10^−8 to 10^−4 M for β1 and β2 transfected cells. Isoproterenol (10^−5 M) was used as an internal standard for comparison of activity. Cells were incubated at 37° C. on a rocker for 30 min with the β3 cells and 15 min for β1 and β2 cells. Incubation was stopped with the addition of 0.2N HCl and neutralized with 2.5N NaOH. The plates, containing the cells and neutralized media, were stored at −20 degrees celsius until ready to test for cAMP using the SPA test kit (Amersham).
Data Analysis and Results: Data collected from the SPA test procedure were analyzed as per cent of the maximal isoproterenol response at 10^−5 M. Activity curves were plotted using the SAS statistical and graphics software.

T1 sequence (P13945 whole entry): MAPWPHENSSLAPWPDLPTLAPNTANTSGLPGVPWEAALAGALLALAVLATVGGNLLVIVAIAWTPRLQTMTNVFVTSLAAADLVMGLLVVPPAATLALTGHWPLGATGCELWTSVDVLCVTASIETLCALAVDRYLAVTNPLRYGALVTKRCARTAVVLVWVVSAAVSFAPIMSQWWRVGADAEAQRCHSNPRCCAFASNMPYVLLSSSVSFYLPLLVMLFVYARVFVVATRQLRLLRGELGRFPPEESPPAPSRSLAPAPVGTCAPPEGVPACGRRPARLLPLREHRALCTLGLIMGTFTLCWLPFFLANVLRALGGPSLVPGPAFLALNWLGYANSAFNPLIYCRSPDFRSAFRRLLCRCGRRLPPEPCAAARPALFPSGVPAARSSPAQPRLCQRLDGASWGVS

| Compound | melting point | EC50 (β3-adrenergic receptor) | IA(β3) (β3-adrenergic receptor) |
| --- | --- | --- | --- |
| O=C1N=C(N2CCCCC2)SC1=Cc1ccc(N2CCC(NC[C@H](O)COc3ccc(O)cc3)CC2)cc1 [Example 16, 5-(4-{4-[(2S)-2-Hydroxy-3-(4-hydroxy-phenoxy)-propylamino]-piperidin-1-yl}-benzylidene)-2-piperidin-1-yl-thiazol-4-one] | > 85 °C (dec.) | 75 nM | 0.96 |
| CCOC(=O)CCNC1=NC(=O)C(=Cc2ccc(N3CCC(NC[C@H](O)COc4cccc5[nH]c(=O)[nH]c45)CC3)cc2)S1 [Example 8, 3-[5-(4-{4-[(2S)-2-Hydroxy-3-(2-oxo-2,3-dihydro-1H-benzoimidazol-4-yloxy)-propylamino]-piperidin-1-yl}-benzylidene)-4-oxo-4,5-dihydro-thiazol-2-ylamino]-propionic acid ethyl ester] | > 120 °C (dec.) | 8 nM | 0.75 |
| CN1CCN(C2=NC(=O)C(=Cc3ccc(N4CCC(NC[C@H](O)COc5ccc(O)cc5)CC4)cc3)S2)CC1 [Example 24, 5-(4-{4-[(2S)-2-Hydroxy-3-(4-hydroxy-phenoxy)-propylamino]-piperidin-1-yl}-benzylidene)-2-(4-methyl-piperazin-1-yl)-thiazol-4-one] | > 210 °C (dec.) | 1920 nM | 1.0 |
| O=C1N=C(NO)SC1=Cc1ccc(N2CCC(NC[C@H](O)COc3cccc4[nH]c(=O)[nH]c34)CC2)cc1 [Example 10, 4-((2S)-2-Hydroxy-3-{1-[4-(2-hydroxyamino-4-oxo-4H-thiazol-5-ylidenemethyl)-phenyl]-piperidin-4-ylamino}-propoxy)-1,3-dihydro-benzoimidazol-2-one] | 201 to 213 °C (dec.) | 19 nM | 0.69 |
| O=C(O)CCNC1=NC(=O)C(=Cc2ccc(N3CCC(NC[C@H](O)COc4cccc5[nH]c(=O)[nH]c45)CC3)cc2)S1 [Example 9, 3-[5-(4-{4-[(2S)-2-Hydroxy-3-(2-oxo-2,3-dihydro-1H-benzoimidazol-4-yloxy)-propylamino]-piperidin-1-yl}-benzylidene)-4-oxo-4,5-dihydro-thiazol-2-ylamino]-propionic acid] | – | 7 nM | 0.81 |
| CCCCCCNC1=NC(=O)C(=Cc2ccc(N3CCC(NC[C@H](O)COc4ccccc4)CC3)cc2)S1 [Example 27, 2-Hexylamino-5-{4-[4-((2S)-2-hydroxy-3-phenoxy-propylamino)-piperidin-1-yl]-benzylidene}-thiazol-4-one] | 182 to 184 °C (dec.) | – | 0.58 |
| Cl.O=C1N=C(N2CCCCC2)SC1=Cc1ccc(OCCNC[C@H](O)COc2ccccc2)cc1 [Example 32, 5-{4-[2-((2S)-2-Hydroxy-3-phenoxy-propylamino)-ethoxy]-benzylidene}-2-piperidin-1-yl-thiazol-4-one hydrochloride salt] | – | 88 nM | 0.33 |
| CNC1=NC(=O)C(=Cc2ccc(N3CCC(NC[C@H](O)COc4cccc5[nH]c(=O)[nH]c45)CC3)cc2)S1 [Example 1, 4-((2S)-2-Hydroxy-3-{1-[4-(2-methylamino-4-oxo-4H-thiazol-5-ylidenemethyl)-phenyl]-piperidin-4-ylamino}-propoxy)-1,3-dihydrobenzoimidazol-2-one] | > 160 °C (dec.) | 9 nM | 1.0 |
| Cl.O=C1N=C(N2CCCCC2)SC1=Cc1ccc(OCCNC[C@H](O)COc2ccc(O)cc2)cc1 [Example 31, 5-(4-{2-[(2S)-2-Hydroxy-3-(4-hydroxy-phenoxy)-propylamino]-ethoxy}-benzylidene)-2-piperidin-1-yl-thiazol-4-one hydrochloride salt] | – | 210 nM | 0.84 |
| O=C1N=C(N2CCOCC2)SC1=Cc1ccc(N2CCC(NC[C@H](O)COc3ccc(O)cc3)CC2)cc1 [Example 23, 5-(4-{4-[(2S)-2-Hydroxy-3-(4-hydroxy-phenoxy)-propylamino]-piperidin-1-yl}-benzylidene)-2-morpholin-4-yl-thiazol-4-one] | > 100 °C (dec.) | 76 nM | 0.78 |
| O=C1N=C(N2CCOCC2)SC1=Cc1ccc(N2CCC(NC[C@H](O)COc3cccc4[nH]c(=O)[nH]c34)CC2)cc1 [Example 18, 4-((2S)-2-Hydroxy-3-{1-[4-(2-morpholin-4-yl-4-oxo-4H-thiazol-5-ylidenemethyl)-phenyl]-piperidin-4-ylamino}-propoxy)-1,3-dihydro-benzoimidazol-2-one] | > 150 °C (dec.) | 3 nM | 0.89 |
| CN(C)CCCNC1=NC(=O)C(=Cc2ccc(N3CCC(NC[C@H](O)COc4ccccc4)CC3)cc2)S1 [Example 26, 2-(3-Dimethylamino-propylamino)-5-{4-[4-((2S)-2-hydroxy-3-phenoxy-propylamino)-piperidin-1-yl]-benzylidene}-thiazol-4-one] | 166 to 168 °C (dec.) | 156 nM | 0.85 |
| O=C1N=C(NC2CCN(Cc3ccccc3)CC2)SC1=Cc1ccc(N2CCC(NC[C@H](O)COc3ccc(O)cc3)CC2)cc1 [Example 4, 2-(1-Benzyl-piperidin-4-ylamino)-5-(4-{(2S)-4-[2-hydroxy-3-(4-hydroxy-phenoxy)-propylamino]-piperidin-1-yl}-benzylidene)-thiazol-4-one] | > 175 °C (dec.) | 230 nM | 0.6 |
| Cl.Cl.O=C1N=C(N2CCOCC2)SC1=Cc1ccc(N2CCC(NC[C@H](O)COc3ccccc3)CC2)cc1 [Example 22, 5-{4-[4-((2S)-2-Hydroxy-3-phenoxy-propylamino)-piperidin-1-yl]-benzylidene}-2-morpholin-4-yl-thiazol-4-one dihydrochloride salt] | > 160 °C (dec.) | 40 nM | 0.58 |
| CS(=O)(=O)Nc1cc(C(O)CNCCOc2ccc(C=C3SC(N4CCCCC4)=NC3=O)cc2)ccc1O (centres unmarked) [Example 33, N-[2-Hydroxy-5-(1-hydroxy-2-{2-[4-(4-oxo-2-piperidin-1-yl-4H-thiazol-5-ylidenemethyl)-phenoxy]-ethylamino}-ethyl)-phenyl]-methanesulfonamide] | – | 2 nM | 0.86 |
| O=C1CCc2c(OC[C@@H](O)CNCCOc3ccc(C=C4SC(N5CCCCC5)=NC4=O)cc3)ccc(O)c2N1 [Example 34, 8-Hydroxy-5-((2S)-2-hydroxy-3-{2-[4-(4-oxo-2-piperidin-1-yl-4H-thiazol-5-ylidenemethyl)-phenoxy]-ethylamino}-propoxy)-3,4-dihydro-1H-quinolin-2-one] | > 115 °C (dec.) | 3 nM | 1.0 |
| O=C1N=C(NCCN2CCOCC2)SC1=Cc1ccc(N2CCC(NC[C@H](O)COc3cccc4[nH]c(=O)[nH]c34)CC2)cc1 [Example 2, 4-[(2S)-2-Hydroxy-3-(1-{4-[2-(2-morpholin-4-ylethylamino)-4-oxo-4H-thiazol-5-ylidenemethyl]-phenyl}-piperidin-4-ylamino)-propoxy]-1,3-dihydrobenzoimidazol-2-one] | > 140 °C (dec.) | 22 nM | 1.0 |
| O=C1N=C(NC2CCN(Cc3ccccc3)CC2)SC1=Cc1ccc(N2CCC(NC[C@H](O)COc3cccc4[nH]c(=O)[nH]c34)CC2)cc1 [Example 3, 4-[(2S)-3-(1-{4-[2-(1-Benzyl-piperidin-4-ylamino)-4-oxo-4H-thiazol-5-ylidenemethyl]-phenyl}-piperidin-4-ylamino)-2-hydroxy-propoxy]-1,3-dihydro-benzoimidazol-2-one] | > 165 °C (dec.) | 30 nM | 0.52 |
| O=C(O)CC[C@H](NC1=NC(=O)C(=Cc2ccc(N3CCC(NC[C@H](O)COc4cccc5[nH]c(=O)[nH]c45)CC3)cc2)S1)C(=O)O [Example 29, (2S)-2-[5-(4-{4-[(2S)-2-Hydroxy-3-(2-oxo-2,3-dihydro-1H-benzoimidazol-4-yloxy)-propylamino]-piperidin-1-yl}-benzylidene)-4-oxo-4,5-dihydro-thiazol-2-ylamino]-pentanedioic acid] | > 270 °C (dec.) | 17 nM | 0.91 |
| CN1CCN(C2=NC(=O)C(=Cc3ccc(N4CCC(NC[C@H](O)COc5cccc6[nH]c(=O)[nH]c56)CC4)cc3)S2)CC1 [Example 19, 4-[(2S)-2-Hydroxy-3-(1-{4-[2-(4-methyl-piperazin-1-yl)-4-oxo-4H-thiazol-5-ylidenemethyl]-phenyl}-piperidin-4-ylamino)-propoxy]-1,3-dihydro-benzoimidazol-2-one] | > 150 °C (dec.) | – | – |
